Tests used:
Assay in all cases: relative viability (nuclei count vs DMSO), 5 days (fraction); higher = more cells survive
[1] = compound: CC1CC(=O)N(C2=CN=C(N=C2N1C3CCCC3)NC4=C(C=C(C=C4)C(=O)NC5CCN(CC5)C)OC)C [NPK76-II-72-1] + COc1cc2c(Oc3ccc(NC(=O)C4(C(=O)Nc5ccc(F)cc5)CC4)cc3F)ccnc2cc1OCCCN1CCOCC1 [Foretinib] (partner 0.25 µM)
How it was run: (§1)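 Relative viability divides the nuclei count in treated wells by that in vehicle wells. Lung cancer cell lines were seeded in 1536-well plates, dosed by pin tool the next day, and fixed and stained after 5 days in one step with final 0.05% Triton X-100, 1% formaldehyde and 1 ug/ml Hoechst. Dosing was a single drug or a fixed anchor-drug dose plus five library-drug doses (not always all listed) in √10 steps, and values are medians of duplicate plates imaged at 4×.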

[2] = compound: CC1CC(=O)N(C2=CN=C(N=C2N1C3CCCC3)NC4=C(C=C(C=C4)C(=O)NC5CCN(CC5)C)OC)C [NPK76-II-72-1] + O=C(CCCCCCC(=O)Nc1ccccc1)NO [Vorinostat] (partner 1 µM)
How it was run: as §1

[3] = compound: CC[C@@H]1C(=O)N(C)c2cnc(Nc3ccc(C(=O)NC4CCN(C)CC4)cc3OC)nc2N1C1CCCC1 [BI-2536] + CC(=O)Nc1cccc(-n2c(=O)n(C3CC3)c(=O)c3c(Nc4ccc(I)cc4F)n(C)c(=O)c(C)c32)c1 [Trametinib] (partner 0.02 µM)
How it was run: as §1

[4] = compound: CC[C@@H]1C(=O)N(C)c2cnc(Nc3ccc(C(=O)NC4CCN(C)CC4)cc3OC)nc2N1C1CCCC1 [BI-2536] + CC1(C)CCC(c2ccc(Cl)cc2)=C(CN2CCN(c3ccc(C(=O)NS(=O)(=O)c4ccc(N[C@H](CCN5CCOCC5)CSc5ccccc5)c(S(=O)(=O)C(F)(F)F)c4)cc3)CC2)C1 [Navitoclax] (partner 0.5 µM)
How it was run: as §1

| Cell Line | relative viability ([1]; first compound 0.01 µM) | relative viability ([1]; first compound 0.03162 µM) | relative viability ([1]; first compound 0.1 µM) | relative viability ([1]; first compound 0.3162 µM) | relative viability ([1]; first compound 1 µM) | relative viability ([2]; first compound 0.01 µM) | relative viability ([2]; first compound 0.03162 µM) | relative viability ([2]; first compound 0.1 µM) | relative viability ([2]; first compound 0.3162 µM) | relative viability ([2]; first compound 1 µM) | relative viability ([3]; first compound 0.01 µM) | relative viability ([3]; first compound 0.03162 µM) | relative viability ([3]; first compound 0.1 µM) | relative viability ([3]; first compound 0.3162 µM) | relative viability ([3]; first compound 1 µM) | relative viability ([4]; first compound 0.01 µM) | relative viability ([4]; first compound 0.03162 µM) | relative viability ([4]; first compound 0.1 µM) | relative viability ([4]; first compound 0.3162 µM) | relative viability ([4]; first compound 1 µM) |
| --- | --- | --- | --- | --- | --- | --- | --- | --- | --- | --- | --- | --- | --- | --- | --- | --- | --- | --- | --- | --- |
| HCC-78 | 0.561 | 0.549 | 0.489 | 0.507 | 0.616 | 0.456 | 0.461 | 0.463 | 0.418 | 0.499 | 0.829 | 0.837 | 0.814 | 0.562 | 0.246 | 0.772 | 0.708 | 0.635 | 0.344 | 0.144 |
| HCC-366 | 0.929 | 0.953 | 0.906 | 0.944 | 0.951 | 0.358 | 0.361 | 0.394 | 0.322 | 0.461 | 0.364 | 0.371 | 0.235 | 0.0287 | 0.0227 | 1.1 | 1.1 | 0.809 | 0.0109 | 0.0154 |
| HCC-827 | 1.01 | 1.06 | 0.912 | 1.03 | 1.12 | 0.825 | 0.9 | 0.831 | 0.817 | 0.942 | 0.594 | 0.538 | 0.506 | 0.324 | 0.225 | 1.06 | 1 | 0.99 | 0.23 | 0.186 |
| HOP-62 | 1.06 | 1.27 | 0.993 | 1.15 | 1.08 | 0.618 | 0.767 | 0.598 | 0.39 | 0.713 | 0.315 | 0.353 | 0.401 | 0.167 | 0.152 | 1 | 1.08 | 0.967 | 0.0716 | 0.0536 |
| IA-LM | 1.06 | 1.18 | 1.18 | 1.12 | 1.26 | 1.1 | 0.923 | 0.852 | 1.03 | 1.1 | – | – | – | – | – | 0.753 | 0.559 | 0.0092 | 0.0147 | 0.0245 |
| LC-2-ad | 0.908 | 0.948 | 0.94 | 0.809 | 1.08 | 0.619 | 0.768 | 0.668 | 0.755 | 0.698 | 0.913 | 0.803 | 0.672 | 0.224 | 0.239 | 0.412 | 0.405 | 0.113 | 0.108 | 0.103 |
| LCLC-97TM1 | 0.935 | 0.973 | 0.85 | 0.881 | 0.948 | 0.682 | 1.03 | 0.561 | 0.61 | 0.814 | 0.189 | 0.179 | 0.2 | 0.0929 | 0.0902 | 0.567 | 0.564 | 0.246 | 0.121 | 0.142 |
| LCLC-103H | 0.666 | 0.726 | 0.717 | 0.745 | 0.739 | – | 0.83 | 0.769 | 0.745 | 0.838 | 0.671 | 0.711 | 0.69 | 0.336 | 0.277 | – | – | – | – | – |
| LK-2 | 1.15 | 1.26 | 1.09 | 1.09 | 1.13 | 0.451 | 0.263 | 0.36 | 0.165 | 0.327 | 0.787 | 0.752 | 0.746 | 0.173 | 0.181 | 0.798 | 0.553 | 0.387 | 0.118 | 0.172 |
| LOU-NH91 | 0.871 | 0.933 | 0.948 | 0.795 | 1 | 0.89 | 0.935 | 0.763 | 0.814 | 1.06 | 0.798 | 0.736 | 0.682 | 0.332 | 0.33 | 0.673 | 0.53 | 0.648 | 0.316 | 0.261 |
| NCI-H358 | 0.575 | 0.695 | 0.915 | – | 0.769 | 0.674 | 0.647 | 0.754 | – | 0.818 | 0.146 | 0.126 | 0.11 | 0.0815 | 0.0734 | – | – | – | – | – |
| NCI-H522 | – | – | – | – | – | 0.736 | 0.902 | 0.995 | – | 0.79 | 0.745 | 0.757 | 0.766 | 0.302 | 0.289 | – | – | – | – | – |
| NCI-H650 | 1.01 | 1.04 | 0.971 | 0.918 | 1.04 | 0.445 | 0.441 | 0.453 | 0.307 | 0.521 | 0.847 | 0.956 | 0.858 | 0.152 | 0.16 | – | – | – | – | – |
| NCI-H661 | 0.997 | 1.01 | 1.03 | 0.909 | 1.07 | 0.772 | 0.785 | 0.755 | 0.735 | 0.795 | 0.587 | 0.427 | 0.291 | 0.238 | 0.264 | – | – | – | – | – |
| NCI-H1299 | 1.11 | 1.12 | 1.2 | 1.07 | 1.03 | – | – | – | – | – | – | – | – | – | – | 1.08 | 1.1 | 1.05 | 0.315 | 0.254 |
| NCI-H1563 | 0.84 | 0.875 | 0.933 | 0.923 | 0.845 | – | – | – | – | – | – | – | – | – | – | – | – | – | – | – |
| NCI-H1623 | 0.836 | 0.872 | 0.914 | 0.566 | 0.998 | – | – | – | – | – | – | – | – | – | – | – | – | – | – | – |
| NCI-H1648 | – | – | – | – | – | 0.455 | 0.536 | 0.319 | 0.348 | 0.437 | 0.463 | 0.409 | 0.434 | 0.28 | 0.289 | – | – | – | – | – |
| NCI-H1703 | 0.363 | – | 0.316 | 0.35 | 0.343 | – | – | – | – | – | – | – | – | – | – | 1.13 | 0.349 | 0.136 | 0.142 | 0.104 |
| NCI-H1792 | – | – | – | – | – | – | – | – | – | – | 0.604 | 0.417 | 0.395 | 0.0597 | 0.0491 | 0.624 | 0.589 | 0.559 | 0.171 | 0.0662 |
| NCI-H2342 | 0.948 | 1.1 | 1.09 | 0.88 | 1.15 | 0.742 | 0.917 | 0.783 | 0.658 | 0.763 | – | 0.705 | 0.73 | 0.604 | 0.454 | – | – | – | – | – |
| SW 900 | 0.864 | 1.27 | 0.852 | 0.76 | 0.947 | 0.515 | 0.624 | 0.515 | 0.433 | 0.559 | 0.929 | 0.942 | 0.875 | 0.828 | 0.147 | – | – | – | – | – |

Reference: the supplement of paper PMC10307832
